# Positions of bridges follow the written chain, without caps; N, C: chain ends. No end group written: not given here.
# Assays:
# [1] = system: E. hormaechei (ATCC700323); experiment: microbe, parasite or virus in culture; assay type: cell-based, Enterobacter hormaechei; settings: Enterobacter hormaechei; E. hormaechei (ATCC700323); CLSI two-fold dilution, MH medium, 1 × 10^6 CFU/mL, 37 °C, 18 h, OD600; 9 replicates of 3 independent experiments; read-out: MIC
# Method: (§1) The minimum inhibitory concentration (MIC) of the Brevinin-1BW was measured in 96-well microtiter plates according to the Clinical and Laboratory Standards Institute (CLSI). The activated strains were treated with Mueller Hinton Agar (MHA) solid medium. Single colonies were picked and expanded to the logarithmic growth phase, and the solution was diluted to 2 × 10^6 CFU/mL using the McFarland turbidity standard. The MIC was determined with the two-fold dilution method. Briefly, 50 μL of Mueller Hinton (MH) medium was added to a 96-well plate in advance. Then, 50 μL of AMP solution was added to the first well, and 50 μL was pipetted into the next well after mixing using a row gun, while 50 μL was discarded from the last well. Final concentrations of Brevinin-1BW were 100, 50, 25, 12.5, 6.25, and 3.125 μg/mL. A 50 μL volume of the diluted bacterial solution was added, and the final concentration of the bacterial solution was 1 × 10^6 CFU/mL. This was then placed into a 37 °C incubator for 18 h until the next day to observe the degree of turbidity of the 96-well plate and measure the absorbance of the wells at 600 nm with a multifunctional microplate reader (SpectraMax iD5, Molecular Devices, Sunnyvale, CA, USA). The absence of turbidity and the measured concentration of absorbance being less than the opposing group was taken as the MIC. The positive control used ampicillin at the same final concentration as Brevinin-1BW, the negative control used 50 μL of MH medium mixed with 50 μL of 2 × 10^6 CFU/mL bacterial solution, and the blank contained only 100 μL of MH medium. Three replicate wells were set up for each experiment, and each experiment was repeated three times. The MIC and all concentrations above the MIC of bacterial solution coated on MHA solid medium were placed into 37 °C incubator incubation for 18 h. The lowest concentration resulting in no colony growth was taken as the minimum bactericidal concentration (MBC).
# [2] = system: C. koseri (CI 1611SED223); experiment: microbe, parasite or virus in culture; assay type: cell-based, Citrobacter koseri; settings: Citrobacter koseri; C. koseri (CI 1611SED223), clinical isolate; CLSI two-fold dilution, MH medium, 1 × 10^6 CFU/mL, 37 °C, 18 h, OD600; 9 replicates of 3 independent experiments; read-out: MIC
# Method: as §1
# [3] = system: S. epidermidis (CI 1607BL1D39); experiment: microbe, parasite or virus in culture; assay type: cell-based, Staphylococcus epidermidis; settings: Staphylococcus epidermidis; S. epidermidis (CI 1607BL1D39), clinical isolate; CLSI two-fold dilution, MH medium, 1 × 10^6 CFU/mL, 37 °C, 18 h, OD600; 9 replicates of 3 independent experiments; read-out: MIC
# Method: as §1
# [4] = system: S. haemolyticus (CI 1607BLD590); experiment: microbe, parasite or virus in culture; assay type: cell-based, Staphylococcus haemolyticus; settings: Staphylococcus haemolyticus; S. haemolyticus (CI 1607BLD590), clinical isolate; CLSI two-fold dilution, MH medium, 1 × 10^6 CFU/mL, 37 °C, 18 h, OD600; 9 replicates of 3 independent experiments; read-out: MIC
# Method: as §1
# [5] = system: P. aeruginosa (ATCC27853); experiment: microbe, parasite or virus in culture; assay type: cell-based, Pseudomonas aeruginosa; settings: Pseudomonas aeruginosa; P. aeruginosa (ATCC27853); CLSI two-fold dilution, MH medium, 1 × 10^6 CFU/mL, 37 °C, 18 h, OD600; 9 replicates of 3 independent experiments; read-out: MIC
# Method: as §1
# [6] = system: E. faecalis (ATCC29212); experiment: microbe, parasite or virus in culture; assay type: cell-based, Enterococcus faecalis; settings: Enterococcus faecalis; E. faecalis (ATCC29212); CLSI two-fold dilution, MH medium, 1 × 10^6 CFU/mL, 37 °C, 18 h, OD600; 9 replicates of 3 independent experiments; read-out: MIC
# Method: as §1
# [7] = system: S. saprophytics (ATCCBAA750); experiment: microbe, parasite or virus in culture; assay type: cell-based, Staphylococcus saprophyticus; settings: Staphylococcus saprophyticus; S. saprophytics (ATCCBAA750); CLSI two-fold dilution, MH medium, 1 × 10^6 CFU/mL, 37 °C, 18 h, OD600; 9 replicates of 3 independent experiments; read-out: MIC
# Method: as §1
# [8] = system: E. coli (ATCC25922); experiment: microbe, parasite or virus in culture; assay type: cell-based; settings: Escherichia coli; E. coli (ATCC25922); CLSI two-fold dilution, MH medium, 1 × 10^6 CFU/mL, 37 °C, 18 h, OD600; 9 replicates of 3 independent experiments; read-out: MIC
# Method: as §1
# [9] = system: S. aureus (MDR ATCC29213); experiment: microbe, parasite or virus in culture; assay type: cell-based, Staphylococcus aureus; settings: Staphylococcus aureus; S. aureus (MDR ATCC29213); CLSI two-fold dilution, MH medium, 1 × 10^6 CFU/mL, 37 °C, 18 h, OD600; 9 replicates of 3 independent experiments; read-out: MIC
# Method: as §1
# [10] = system: S. aureus (ATCC25923); experiment: microbe, parasite or virus in culture; assay type: cell-based, Staphylococcus aureus; settings: Staphylococcus aureus; S. aureus (ATCC25923); CLSI two-fold dilution, MH medium, 1 × 10^6 CFU/mL, 37 °C, 18 h, OD600; 9 replicates of 3 independent experiments; read-out: MIC
# Method: as §1
# [11] = system: E. coli (MDR ATCC35218); experiment: microbe, parasite or virus in culture; assay type: cell-based, Escherichia coli; settings: Escherichia coli; E. coli (MDR ATCC35218); CLSI two-fold dilution, MH medium, 1 × 10^6 CFU/mL, 37 °C, 18 h, OD600; 9 replicates of 3 independent experiments; read-out: MIC
# Method: as §1
# [12] = system: K. pneumoniae (ATCC700603); experiment: microbe, parasite or virus in culture; assay type: cell-based, Klebsiella pneumoniae; settings: Klebsiella pneumoniae; K. pneumoniae (ATCC700603); CLSI two-fold dilution, MH medium, 1 × 10^6 CFU/mL, 37 °C, 18 h, OD600; 9 replicates of 3 independent experiments; read-out: MIC
# Method: as §1
# [13] = system: MRSA/MDR S. aureus; settings: ref [44],[45],[46],[47]; cited from earlier work
# Source text: Table 5 Comparison of MICs of Brevinin-1BW and related AMPs congeners against specific microorganisms. | column: MIC (µM) / MRSA/MDR S. aureus
# [14] = system: S. aureus; settings: ref [44],[45],[46],[47]; cited from earlier work
# Source text: Table 5 Comparison of MICs of Brevinin-1BW and related AMPs congeners against specific microorganisms. | column: MIC (µM) / S. aureus
# [15] = system: E. faecalis; settings: ref [44],[45],[46],[47]; cited from earlier work
# Source text: Table 5 Comparison of MICs of Brevinin-1BW and related AMPs congeners against specific microorganisms. | column: MIC (µM) / E. faecalis
molecule,measurement,setting,value
"CC1(C)S[C@@H]2[C@H](NC(=O)[C@H](N)c3ccccc3)C(=O)N2[C@H]1C(=O)O [Ampicillin, reference compound]",MIC,[1],> 100 µg/mL
same,MIC,[2],> 100 µg/mL
same,MIC,[3],3.12 µg/mL
same,MIC,[4],> 100 µg/mL
same,MIC,[5],> 100 µg/mL
same,MIC,[6],3.12 µg/mL
same,MIC,[7],3.12 µg/mL
same,MIC,[8],100 µg/mL
same,MIC,[9],> 100 µg/mL
same,MIC,[10],3.12 µg/mL
same,MIC,[11],> 100 µg/mL
same,MIC,[12],> 100 µg/mL
"FLGALFKVASKLVPAAICSISKKC (disulfide 18-24 (inferred)) [Brevinin-1GHd, related Brevinin-1 family AMP from publications]",MIC,[13],4 µM
same,MIC,[14],2 µM
"FLGAVLKVAGKLVPAAICKISKKC (disulfide 18-24 (inferred)) [Brevinin-1GHa, related Brevinin-1 family AMP from publications]",MIC,[15],8 µM
same,MIC,[13],4 µM
same,MIC,[14],2 µM
"FLGSIVGALASALPSLISKIRN [Brevinin1TSa, related Brevinin-1 family AMP from publications]",MIC,[15],50 µM
same,MIC,[13],25 µM
same,MIC,[14],25 µM
"FLPAVIRVAANVLPTVFCAISKKC (disulfide 18-24 (inferred)) [Brevinin-1JDa, related Brevinin-1 family AMP from publications]",MIC,[13],13 µM
same,MIC,[14],6 µM
"FLPAVLRVAAKVVPTVFCLISKKC (disulfide 18-24 (inferred)) [Brevinin-1JDc, related Brevinin-1 family AMP from publications]",MIC,[13],3 µM
same,MIC,[14],6 µM
"FLPGVLRLVTKVGPAVVCAITRNC (disulfide 18-24 (inferred)) [Brevinin-1ISa, related Brevinin-1 family AMP from publications]",MIC,[13],3.1 µM
same,MIC,[14],3.1 µM

# Source: paper PMC11013252, “Exploration of the Antibacterial and Anti-Inflammatory Activity of a Novel Antimicrobial Peptide Brevinin-1BW” (Molecules, 2024)
